US20250214925A1, “CATIONIC LIPID, LIPOSOME, LIPID NANOPARTICLE, AND USE” (CARCELL BIOPHARMA LTD., priority 2022, published 2025)

Experiments:
[1] = LNP size and PDI by dynamic laser light scattering; format: physicochemical; conditions: LNP: 50% cationic lipid, 38.5% cholesterol, 10% DSPC, 1.5% DMG-PEG2000; Ffluc mRNA
Method: (§1) 1. The cationic lipid (50 mg/mL) prepared in the above examples of the present disclosure, cholesterol (20 mg/mL), DSPC (20 mg/mL) and DMG-PEG2000 (20 mg/mL) were dissolved in ethanol, and the solution was placed in a 55° C. metal thermostatic bath as needed to aid dissolution, to obtain a lipid mixture with the following molar composition: 1.5% DMG-PEG2000, 50% cationic lipid, 38.5% cholesterol, and 10% DSPC.
(§2) 2. The mRNA encoding Ffluc was diluted with 10 mM pH 4.0 citrate buffer to prepare a 0.2 mg/mL mRNA solution.
(§3) 3. The lipid mixture prepared in step 1 was mixed with the mRNA solution prepared in step 2 using a syringe pump with a tee at a total flow rate of 40 mL/min.
(§4) 4. The LNP mixture was collected after the three-way mixing and placed in a dialysis bag with a molecular weight cut-off of 100 KDa.
(§5) 5. The LNP mixture was dialyzed overnight against 50 mM Tris-buffered saline, pH 7.4.
(§6) 6. Sieving, and subsequent measurement of the sieved LNP to measure the PDI of the LNP by dynamic laser light scattering; to measure the mRNA encapsulation efficiency and concentration by Ribogreen assay; and to measure the pKa by TNS-α assay.

mice = assay: In vivo delivery of Ffluc mRNA LNP in mice, intravenous administration, luminescence relative to MC3; design: species or system mice (female Balb/C); conditions: fold change in luminescence intensity relative to MC3; 0.06 mg/kg tail vein; 6 h after injection
Method: The prepared encapsulation solution was applied to mice in the following manner, and its delivery efficiency in mice was tested. Among them, DLin-MC3-DMA (MC3) was a cationic liposome for delivering small nucleic acids that was approved by the FDA for marketing in 2018, which has high nucleic acid drug delivery efficiency and biosafety, and was usually used as the industry gold standard in the screening process of cationic lipids. In the evaluation of mice experiments, the ratio of nucleic acid delivery efficiency normalized to MC3 was greater than 0.1, which was considered to be a cationic lipid with high delivery efficiency.
1. The LNP solution was diluted with 50 mM TBS, pH 7.4 to a concentration of 0.1 mg/mL mRNA.
2. The mice involved in this study were female Balb/C, weighing 18-22 g, 6-8 weeks old, with 5 mice in each group.
3. The dosing solution was kept at 4° C. prior to injection.
4. Each mice received 0.06 mg/kg via tail vein injection.
5. The mice were injected intraperitoneally with 200 μL of 1.5 mg/mL D-luciferin solution 6 h after injection.
6. The in vivo luminescence images of the mice were obtained using the IVIS system (Aniview).
7. The luminescence intensity of each mice was measured using Aniview software.
8. MC3 lipid nanoparticles were used as a positive control. The in vivo efficacy of each cationic lipid tested was recorded as the fold change in luminescence intensity relative to MC3 (ratio normalized to MC3).

[2] = mRNA encapsulation efficiency of LNP by Ribogreen assay; format: physicochemical; conditions: LNP: 50% cationic lipid, 38.5% cholesterol, 10% DSPC, 1.5% DMG-PEG2000; Ffluc mRNA
Method: as §1, §2, §3, §4, §5, §6

Row | Compound | PDI [1] | Size (nm) [1] [nm] | In Vivo Efficacy Normalized To Mc3 In Mice (Intravenous Injection) (mice) | Encapsulation Rate [2] [%]
1 | CCCCCCCCCC/C(=C/C(=O)OCCCCCN(CCCO)CCCCCOC(=O)/C=C(\CCCC)CCCCCCCCCC)CCCC [CPL-044, ((3-hydroxypropyl)azanediyl)bis(pentane-5,1-diyl)(2E,2′E)-bis(3-butyltridec-2-enoate)] | 0.15 | 78.4 | 1.26 | 98
2 | CCCCCCCC/C(=C/C(=O)OCCCCCCN(CCCO)CCCCCCOC(=O)/C=C(\CCCCC)CCCCCCCC)CCCCC [CPL-047, ((3-hydroxypropyl)azanediyl)bis(hexane-6,1-diyl) (2E,2′E)-bis(3-pentylundec-2-enoate)] | 0.25 | 114.7 | 1.59 | 96
3 | CCCCCCCCCC/C(=C/C(=O)OCCCCCN(CCCO)CCCCCOC(=O)/C=C(\CCCCC)CCCCCCCCCC)CCCCC [CPL-048, ((3-hydroxypropyl)azanediyl)bis(pentane-5,1-diyl) (2E,2′E)-bis(3-pentyltridec-2-enoate)] | 0.2409 | 110.1 | 1.57 | 94
4 | CCCCCCC(=CC(=O)OCCCCCN(CCCO)CCCCCOC(=O)C=C(CCCCCC)CCCCCC)CCCCCC [CPL-049, ((3-hydroxypropyl)azanediyl)bis(pentane-5,1-diyl)(2E,2′E)-bis(3-hexylnon-2-enoate)] | 0.1651 | 101.6 | 1.88 | 90
5 | CCCCCCC/C(=C/C(=O)OCCCCCN(CCCO)CCCCCOC(=O)/C=C(\CCCC)CCCCCCC)CCCC [CPL-052, ((3-hydroxypropyl)azanediyl)bis(pentane-5,1-diyl) (2E,2′E)-bis(3-butyldec-2-enoate)] | 0.1162 | 90.76 | 1.46 | 93
6 | CCCCCCCC/C(=C/C(=O)OCCCCCCN(CCCO)CCCCCCOC(=O)/C=C(\CCC)CCCCCCCC)CCC [CPL-061, ((3-hydroxypropyl)azanediyl)bis(hexane-6,1-diyl) (2E,2′E)-bis(3-propylundec-2-enoate)] | 0.1612 | 94.04 | 1.06 | 94
7 | CCCCCCCC/C(=C/C(=O)OCCCCCCN(CCCO)CCCCCCOC(=O)/C=C(\CCCC)CCCCCCCC)CCCC [CPL-065, ((3-hydroxypropyl)azanediyl)bis(hexane-6,1-diyl) (2E,2′E)-bis(3-butylundec-2-enoate)] | 0.1898 | 83.7 | 1.62 | 95
8 | CCCCCC/C(=C/C(=O)OCCCCCCCN(CCCO)CCCCCCCOC(=O)/C=C(\CCCCC)CCCCCC)CCCCC [CPL-090, ((3-hydroxypropyl)azanediyl)bis(heptane-7,1-diyl) (2E,2′E)-bis(3-pentylnon 2-enoate)] | 0.1615 | 85.28 | 2.02 | 94
9 | CCCCCC/C(=C/C(=O)OCCCCCCCCN(CCCO)CCCCCCCCOC(=O)/C=C(\CCCCC)CCCCCC)CCCCC [CPL-112, ((3-hydroxypropyl)azanediyl)bis(octane-8,1-diyl)(2E,2′E)-bis(3-pentylnon-2-enoate)] | 0.1173 | 85.04 | 2.14 | 95
10 | CCCCCCC/C(=C/C(=O)OCCCCCCCCCCCN(CCCO)CCCCCCCCCCCOC(=O)/C=C(\CCCC)CCCCCCC)CCCC [CPL-184, ((3-hydroxypropyl)azanediyl)bis(undecane-11,1-diyl) (2E,2′E)-bis(3butyldec-2-enoate)] | 0.173 | 84.6 | 0.98 | 94
11 | CCCCC/C=C\C/C=C\CCCCCCCC(=O)OCC(COC(=O)/C=C(\CCCC)CCCCC)COC(=O)OCCN(C)C (stereo not shown) [CPL-199, 3-(((E)-3-butyloct-2-enoyl)oxy)-2-((((2-(dimethylamino)ethoxy)carbonyl)oxy)methyl)propyl(9Z,12Z)-octadeca-9,12-dienoate] | 0.1394 | 86.92 | 0.12 | 96
12 | CCCCC/C=C\C/C=C\CCCCCCCC(=O)OCC(COC(=O)C=C(CCCCCCCC)CCCCCCCC)COC(=O)OCCN(C)C (stereo not shown) [CPL-210, 3-(((2-(dimethylamino)ethoxy)carbonyl)oxy)-2-(((3-octylundec-2-enoyl)oxy)methyl)propyl(9Z,12Z)-octadeca-9,12-dienoate] | 0.2144 | 52.37 | 0.14 | 83
13 | CCCCC/C=C\C/C=C\CCCCCCCC(=O)OCC(COC(=O)/C=C(/CCCC)CCCCCC)COC(=O)OCCCN(C)C (stereo not shown) [CPL-218, 3-(((Z)-3-butylnon-2-enoyl)oxy)-2-((((3-(dimethylamino)propoxy)carbonyl)oxy)methyl)propyl(9Z,12Z)-octadeca-9,12-dienoate] | 0.1194 | 114.4 | 0.19 | 87
14 | CCCCC/C=C\C/C=C\CCCCCCCC(=O)OCC(COC(=O)/C=C(\CCCC)CCCCC)COC(=O)OCCCN(C)C (stereo not shown) [CPL-221, 3-(((E)-3-butyloct-2-enoyl)oxy)-2-((((3-(dimethylamino)propoxy)carbonyl)oxy)methyl)propyl(9Z,12Z)-octadeca-9,12-dienoate] | 0.0453 | 82.01 | 0.44 | 96
15 | CCCCC/C=C\C/C=C\CCCCCCCC(=O)OCC(COC(=O)/C=C(\CCCCC)CCCCCC)COC(=O)OCCCN(C)C (stereo not shown) [CPL-222, 3-(((3-(dimethylamino)propoxy)carbonyl)oxy)-2-((((E)-3-pentylnon-2-enoyl)oxy)methyl)propyl(9Z,12Z)-octadeca-9,12-dienoate] | 0.0629 | 72.01 | 0.37 | 96
16 | CCCCC/C=C\C/C=C\CCCCCCCC(=O)OCC(COC(=O)/C=C(\CCCCC)CCCCCCCC)COC(=O)OCCCN(C)C (stereo not shown) [CPL-223, 3-(((3-(dimethylamino)propoxy)carbonyl)oxy)-2-((((E)-3-pentylundec-2-enoyl)oxy)methyl)propyl(9Z,12Z)-octadeca-9,12-dienoate] | 0.102 | 99.55 | 0.41 | 98
17 | CCCCC/C=C\C/C=C\CCCCCCCC(=O)OCC(COC(=O)/C=C(\CCCCC)CCCCCCCCCC)COC(=O)OCCCN(C)C (stereo not shown) [CPL-224, 3-(((3-(dimethylamino)propoxy)carbonyl)oxy)-2-((((E)-3-pentyltridec-2-enoyl)oxy)methyl)propyl(9Z,12Z)-octadeca-9,12-dienoate] | 0.1162 | 90.88 | 0.87 | 94
18 | CCCCC/C=C\C/C=C\CCCCCCCC(=O)OCC(COC(=O)/C=C(\CCCCCCC)CCCCCCCCCC)COC(=O)OCCCN(C)C (stereo not shown) [CPL-231, 3-(((3-(dimethylamino)propoxy)carbonyl)oxy)-2-((((E)-3-heptyltridec-2-enoyl)oxy)methyl)propyl(9Z,12Z)-octadeca-9,12-dienoate] | 0.1118 | 69.42 | 0.55 | 95
19 | CCCCC/C=C\C/C=C\CCCCCCCC(=O)OCC(COC(=O)/C=C(\CCCCCCC)CCCCCCCC)COC(=O)OCCCCN(C)C (stereo not shown) [CPL-252] | 0.1369 | 86.5 | 0.34 | 98
